Results: the supplement of paper PMC4862054

Legend:
Assay in all cases: normalised response (% of control), CellTox Green; higher = less cell death (100 = DMSO, 0 = benzethonium chloride kill control)
Conditions in all cases: incubation time: 72 h
BT-474 = tested on: BT-474
Outline: (§1)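 For each plate, 0.1 % DMSO was set to 100 and a positive kill control to 0. Breast cancer cell lines (20 µl suspension) were seeded into 384-well plates already holding compound at 5 concentrations in 10-fold steps over a 10,000-fold range chosen per compound, and incubated for 72 h. CellTox Green fluorescence at 485/520 nm was read before CellTiter-Glo luminescence, which followed 10 min at room temperature. Each value is the normalised signal at one concentration.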

BT-549 = tested on: BT-549
Outline: as §1

CAL-120 = tested on: CAL-120
Outline: as §1

CAL-148 = tested on: CAL-148
Outline: as §1

CAL-51 = tested on: CAL-51
Outline: as §1

CAL-85-1 = tested on: CAL-85-1
Outline: as §1

DU-4475 = tested on: DU-4475
Outline: as §1

HCC1143 = tested on: HCC1143
Outline: as §1

HCC1599 = tested on: HCC1599
Outline: as §1

HCC1937 = tested on: HCC1937
Outline: as §1

HDQ-P1 = tested on: HDQ-P1
Outline: as §1

Hs578T = tested on: Hs578T
Outline: as §1

MCF-10A = tested on: MCF-10A
Outline: as §1

MDA-MB-231 = tested on: MDA-MB-231
Outline: as §1

MDA-MB-436 = tested on: MDA-MB-436
Outline: as §1

MDA-MB-453 = tested on: MDA-MB-453
Outline: as §1

MDA-MB-468 = tested on: MDA-MB-468
Outline: as §1

MFM-223 = tested on: MFM-223
Outline: as §1

Structure (SMILES): CC1(C)CCC(c2ccc(Cl)cc2)=C(CN2CCN(c3ccc(C(=O)NS(=O)(=O)c4ccc(N[C@H](CCN5CCOCC5)CSc5ccccc5)c(S(=O)(=O)C(F)(F)F)c4)cc3)CC2)C1 [Navitoclax] (10000 nM)
- normalised response (BT-474): 70.3%
- normalised response (BT-549): 97.3%
- normalised response (CAL-120): 13.6%
- normalised response (CAL-148): 74.6%
- normalised response (CAL-51): 31.9%
- normalised response (CAL-85-1): 76.8%
- normalised response (DU-4475): 89.8%
- normalised response (HCC1143): 113%
- normalised response (HCC1599): 103%
- normalised response (HCC1937): 69.4%
- normalised response (HDQ-P1): -0.28%
- normalised response (Hs578T): 101%
- normalised response (MCF-10A): 60.6%
- normalised response (MDA-MB-231): -60.4%
- normalised response (MDA-MB-436): 64.8%
- normalised response (MDA-MB-453): 86.5%
- normalised response (MDA-MB-468): 24.9%
- normalised response (MFM-223): 66.2%

Structure (SMILES): CCNC(=O)CCC/C=C\C[C@@H]1[C@@H](/C=C/[C@@H](O)CCc2ccccc2)[C@H](O)C[C@@H]1O [Bimatoprost] (550 nM)
- normalised response (BT-474): 98.5%
- normalised response (BT-549): 73.3%
- normalised response (CAL-120): 97.7%
- normalised response (CAL-148): 104%
- normalised response (CAL-51): 106%
- normalised response (CAL-85-1): 93.9%
- normalised response (DU-4475): 97.2%
- normalised response (HCC1143): 105%
- normalised response (HCC1599): 97.1%
- normalised response (HCC1937): 129%
- normalised response (HDQ-P1): 66.3%
- normalised response (Hs578T): 97.8%
- normalised response (MCF-10A): 108%
- normalised response (MDA-MB-231): 88.8%
- normalised response (MDA-MB-436): 67.2%
- normalised response (MDA-MB-453): 99.3%
- normalised response (MDA-MB-468): 69%
- normalised response (MFM-223): 103%

Structure (SMILES): CCNC(=O)c1noc(-c2cc(C(C)C)c(O)cc2O)c1-c1ccc(CN2CCOCC2)cc1 [NVP-AUY922] (1000 nM)
- normalised response (BT-474): 55.9%
- normalised response (BT-549): 117%
- normalised response (CAL-120): 88.4%
- normalised response (CAL-148): 42.9%
- normalised response (CAL-51): 48.1%
- normalised response (CAL-85-1): 37.6%
- normalised response (DU-4475): 72.5%
- normalised response (HCC1143): 74.2%
- normalised response (HCC1599): 97.9%
- normalised response (HCC1937): 48.9%
- normalised response (HDQ-P1): 68.8%
- normalised response (Hs578T): -31.9%
- normalised response (MCF-10A): 39.3%
- normalised response (MDA-MB-231): 52.9%
- normalised response (MDA-MB-436): 107%
- normalised response (MDA-MB-453): 89%
- normalised response (MDA-MB-468): 112%
- normalised response (MFM-223): 98.3%

Structure (SMILES): CC(C)(C)NC(=O)[C@H]1CC[C@H]2[C@@H]3CC[C@H]4NC(=O)C=C[C@]4(C)[C@H]3CC[C@]12C [Finasteride] (1000 nM)
- normalised response (BT-474): 99.4%
- normalised response (BT-549): 109%
- normalised response (CAL-120): 99.4%
- normalised response (CAL-148): 104%
- normalised response (CAL-51): 107%
- normalised response (CAL-85-1): 107%
- normalised response (DU-4475): 103%
- normalised response (HCC1143): 96.8%
- normalised response (HCC1599): 100%
- normalised response (HCC1937): 116%
- normalised response (HDQ-P1): 113%
- normalised response (Hs578T): 107%
- normalised response (MCF-10A): 91.2%
- normalised response (MDA-MB-231): 107%
- normalised response (MDA-MB-436): 102%
- normalised response (MDA-MB-453): 105%
- normalised response (MDA-MB-468): 145%
- normalised response (MFM-223): 93.2%

Structure (SMILES): Cc1cc(Nc2nc(N[C@@H](C)c3ncc(F)cn3)ncc2Cl)[nH]n1 [AZD1480] (100 nM)
- normalised response (BT-474): 71.6%
- normalised response (BT-549): 95.4%
- normalised response (CAL-120): 98.6%
- normalised response (CAL-148): 99%
- normalised response (CAL-51): 107%
- normalised response (CAL-85-1): 99.9%
- normalised response (DU-4475): 97.6%
- normalised response (HCC1143): 58.8%
- normalised response (HCC1599): 93.8%
- normalised response (HCC1937): 100%
- normalised response (HDQ-P1): 97.1%
- normalised response (Hs578T): 96.6%
- normalised response (MCF-10A): 85.5%
- normalised response (MDA-MB-231): 98.9%
- normalised response (MDA-MB-436): 101%
- normalised response (MDA-MB-453): 106%
- normalised response (MDA-MB-468): 128%
- normalised response (MFM-223): 100%

Structure (SMILES): Cc1cn(-c2cc(NC(=O)c3ccc(C)c(Nc4nccc(-c5cccnc5)n4)c3)cc(C(F)(F)F)c2)cn1 [Nilotinib] (1000 nM)
- normalised response (BT-474): 88.8%
- normalised response (BT-549): 85.9%
- normalised response (CAL-120): 97%
- normalised response (CAL-148): 106%
- normalised response (CAL-51): 86.3%
- normalised response (CAL-85-1): 101%
- normalised response (DU-4475): 101%
- normalised response (HCC1143): 91.8%
- normalised response (HCC1599): 101%
- normalised response (HCC1937): 131%
- normalised response (HDQ-P1): 79.2%
- normalised response (Hs578T): 104%
- normalised response (MCF-10A): 107%
- normalised response (MDA-MB-231): 68.5%
- normalised response (MDA-MB-436): 82.2%
- normalised response (MDA-MB-453): 106%
- normalised response (MDA-MB-468): 111%
- normalised response (MFM-223): 103%

Structure (SMILES): Nc1ccn([C@@H]2O[C@H](CO)[C@@H](O)C2(F)F)c(=O)n1 [Gemcitabine] (100 nM)
- normalised response (BT-474): 98.1%
- normalised response (BT-549): 95%
- normalised response (CAL-120): 100%
- normalised response (CAL-148): 48.3%
- normalised response (CAL-51): 32.1%
- normalised response (CAL-85-1): 87.8%
- normalised response (DU-4475): 98.8%
- normalised response (HCC1143): 111%
- normalised response (HCC1599): 87.5%
- normalised response (HCC1937): 89%
- normalised response (HDQ-P1): 87.8%
- normalised response (Hs578T): 103%
- normalised response (MCF-10A): 94.5%
- normalised response (MDA-MB-231): 101%
- normalised response (MDA-MB-436): 58.6%
- normalised response (MDA-MB-453): 110%
- normalised response (MDA-MB-468): 28.4%
- normalised response (MFM-223): 101%

Structure (SMILES): COc1ccc(S(=O)(=O)Nc2cccnc2Nc2ccc(O)cc2)cc1 [ABT-751] (10000 nM)
- normalised response (BT-474): 67.4%
- normalised response (BT-549): 77.8%
- normalised response (CAL-120): 92%
- normalised response (CAL-148): 81.8%
- normalised response (CAL-51): 32.5%
- normalised response (CAL-85-1): 50.8%
- normalised response (DU-4475): 107%
- normalised response (HCC1143): 121%
- normalised response (HCC1599): 74.5%
- normalised response (HCC1937): 108%
- normalised response (HDQ-P1): 107%
- normalised response (Hs578T): 29.5%
- normalised response (MCF-10A): 42.6%
- normalised response (MDA-MB-231): 46.2%
- normalised response (MDA-MB-436): 63.9%
- normalised response (MDA-MB-453): 97%
- normalised response (MDA-MB-468): 112%
- normalised response (MFM-223): 35.7%

Structure (SMILES): CC(=O)[C@]1(O)Cc2c(O)c3c(c(O)c2[C@@H](O[C@H]2C[C@H](N)[C@H](O)[C@H](C)O2)C1)C(=O)c1ccccc1C3=O [Idarubicin] (1000 nM)
- normalised response (BT-474): 65.2%
- normalised response (BT-549): 84.2%
- normalised response (CAL-120): 55.6%
- normalised response (CAL-148): 28.9%
- normalised response (CAL-51): -13.1%
- normalised response (CAL-85-1): -10.6%
- normalised response (DU-4475): 81.7%
- normalised response (HCC1143): 110%
- normalised response (HCC1599): 109%
- normalised response (HCC1937): 113%
- normalised response (HDQ-P1): 85.6%
- normalised response (Hs578T): 84%
- normalised response (MCF-10A): 34.9%
- normalised response (MDA-MB-231): 77.7%
- normalised response (MDA-MB-436): 83.7%
- normalised response (MDA-MB-453): 106%
- normalised response (MDA-MB-468): 18.9%
- normalised response (MFM-223): 37.8%
